Measurements reported in US9670226B2, “Sesquiterpenoids” (National Institute of Biological Sciences, Beijing, priority 2014, dated 2017).

How the values were obtained:
[1] = system: IKKβ C215 containing peptides #3 and #4; test: Peptide binding by MALDI-TOF; parameters: species or system human
TAK1 = TAK1 (Homo sapiens, UniProt O43318); test: Association with other NF-κB pathway proteins; type: binding
IKKβ Cys46 into serine = target: T1, IKKβ Cys46 into serine (Homo sapiens, UniProt O14920, C46S); test: Binding to Cys46-to-serine mutant
T1 construct: Flag; made in house
T1 sequence (O14920 whole entry C46S): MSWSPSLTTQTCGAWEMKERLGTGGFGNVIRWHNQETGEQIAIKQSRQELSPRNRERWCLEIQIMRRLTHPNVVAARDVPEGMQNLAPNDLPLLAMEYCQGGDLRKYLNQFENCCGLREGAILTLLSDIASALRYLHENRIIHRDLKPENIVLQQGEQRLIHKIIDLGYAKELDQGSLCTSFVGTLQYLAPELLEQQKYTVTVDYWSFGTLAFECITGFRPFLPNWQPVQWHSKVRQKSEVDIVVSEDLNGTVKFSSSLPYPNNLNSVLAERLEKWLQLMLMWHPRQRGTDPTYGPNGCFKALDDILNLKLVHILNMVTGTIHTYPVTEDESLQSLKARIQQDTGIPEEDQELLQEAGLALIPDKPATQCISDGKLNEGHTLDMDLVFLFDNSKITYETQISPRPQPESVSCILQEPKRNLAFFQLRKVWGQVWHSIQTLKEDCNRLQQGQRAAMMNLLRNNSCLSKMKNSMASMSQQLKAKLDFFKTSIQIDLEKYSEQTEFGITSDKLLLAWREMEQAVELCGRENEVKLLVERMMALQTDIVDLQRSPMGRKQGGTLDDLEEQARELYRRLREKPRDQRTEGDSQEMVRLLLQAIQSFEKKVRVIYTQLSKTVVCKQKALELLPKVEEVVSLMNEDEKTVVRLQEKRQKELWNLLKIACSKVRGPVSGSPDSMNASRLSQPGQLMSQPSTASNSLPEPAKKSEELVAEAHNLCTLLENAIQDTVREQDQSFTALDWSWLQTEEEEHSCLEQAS

phosphorylation of IκBα [2] = test: poly(I:C) (TLR3 ligand) triggered IκBα phosphorylation; type: cell-based
[3] = system: peptides 1A, 2A, 1S and 2S (cysteine 46 replaced by alanine or serine); test: Peptide binding by MALDI-TOF; parameters: species or system human
[4] = system: panel of structurally related kinases
[5] = system: Phosphorylation of IKKα/β; test: TRAF6-induced IKKα/β phosphorylation in S100 cell lysates from 293T cells; type: biochemical; conditions: S100 cell lysates from 293T cells with recombinant TRAF6
Procedure: TNF receptor-associated factors (TRAFs) are important intermediates in NF-κB signaling pathway. For example, TRAF2 and TRAF5 regulate TNF-α receptor triggered IKK activation, whereas TRAF6 is required for IL-1 induced IKK activation^2. The latter pathway can be reconstituted in cell-free extracts by adding recombinant TRAF6 protein. Phosphorylation of IKKα/β was detected in S100 cell lysates from 293T cells when incubated with recombinant TRAF6.

[6] = system: IKKβ, other eight cysteine-to-alanine mutants; test: Binding to IKKβ cysteine mutants
Text: In order to evaluate which of them is critical for the binding of 223, we individually mutated these nine cysteine residues of IKKβ into alanines.

[7] = system: NIK-mediated production of p52 (IKKα activity); test: NIK-mediated non-canonical NF-κB activation (processing of p100 to p52); type: cell-based; conditions: ectopic expression of NIK
Text: Since phosphorylation of p100 by IKKα is critical for NIK-mediated activation of the non-canonical NF-κB, we further investigated the effect of 223 on non-canonical NF-κB activation.

[8] = system: LPS-triggered inflammatory response (serum TNF-α, IL-6, IL-1β); test: LPS induced inflammatory cytokines in vivo; conditions: mice pre-injected with compound, then LPS
Text: (+)-Ainsliadimer A (223) is a structurally unique and complex sesquiterpene lactone dimer with an unprecedented carbon skeleton, which was originally isolated from Ainsliaea macrocephala used in traditional Chinese medicine for the treatment of various diseases, including angina and rheumatoid arthritis^22. Aiming for the systematical chemical genetic studies using bioactive natural products, we have successfully accomplished the first enantioselective total syntheses of 223 as well as other related dimeric and trimeric sesquiterpenoids^23-25, which provided us ample material to extensively investigate their biological activities and potential therapy application. […] As an endotoxin, LPS is known to cause a systemic inflammatory response and acute tissue injury when injected into mice. Thus, we attempt to examine the effect of 223 on LPS-triggered inflammatory response in vivo. Mice were pre-injected with or without vehicle or 223, and then followed by administration of PBS or LPS.

phosphorylation of IκBα [9] = test: TNF induced IκBα phosphorylation in different cell lines; type: cell-based
TAB1 = TAB1 (Homo sapiens, UniProt Q15750); test: Association with other NF-κB pathway proteins; type: binding
Sequence of TAB1 (Q15750 whole entry, species assumed): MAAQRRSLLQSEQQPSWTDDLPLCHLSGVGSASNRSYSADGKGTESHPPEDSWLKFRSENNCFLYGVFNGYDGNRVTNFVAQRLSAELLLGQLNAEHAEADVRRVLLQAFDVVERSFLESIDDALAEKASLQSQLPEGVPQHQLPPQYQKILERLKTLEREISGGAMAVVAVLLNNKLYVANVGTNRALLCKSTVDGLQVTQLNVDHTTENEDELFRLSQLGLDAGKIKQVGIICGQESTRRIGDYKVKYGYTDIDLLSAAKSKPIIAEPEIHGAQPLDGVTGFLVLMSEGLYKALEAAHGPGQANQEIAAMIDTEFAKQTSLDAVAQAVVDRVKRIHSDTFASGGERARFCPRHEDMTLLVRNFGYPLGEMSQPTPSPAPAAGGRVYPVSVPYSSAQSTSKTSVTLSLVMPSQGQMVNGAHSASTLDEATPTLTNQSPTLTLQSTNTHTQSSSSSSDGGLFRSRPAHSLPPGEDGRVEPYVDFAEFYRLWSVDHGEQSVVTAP

Sequence of TAK1 (O43318 whole entry): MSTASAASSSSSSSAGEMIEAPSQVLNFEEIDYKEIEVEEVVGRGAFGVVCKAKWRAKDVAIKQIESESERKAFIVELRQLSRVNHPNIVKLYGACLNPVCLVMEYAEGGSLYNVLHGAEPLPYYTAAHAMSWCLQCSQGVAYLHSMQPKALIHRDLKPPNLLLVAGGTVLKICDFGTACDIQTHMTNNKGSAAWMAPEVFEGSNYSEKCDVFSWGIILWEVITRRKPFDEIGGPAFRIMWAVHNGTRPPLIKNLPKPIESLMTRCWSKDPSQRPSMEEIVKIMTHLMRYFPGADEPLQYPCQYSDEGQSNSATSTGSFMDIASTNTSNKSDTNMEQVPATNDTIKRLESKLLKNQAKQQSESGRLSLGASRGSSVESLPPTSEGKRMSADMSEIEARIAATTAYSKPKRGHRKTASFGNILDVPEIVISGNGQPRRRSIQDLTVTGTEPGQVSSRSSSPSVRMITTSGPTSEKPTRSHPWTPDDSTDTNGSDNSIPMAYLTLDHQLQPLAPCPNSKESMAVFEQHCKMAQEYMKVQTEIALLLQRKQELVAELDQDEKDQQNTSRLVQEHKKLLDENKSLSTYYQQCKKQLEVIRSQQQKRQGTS

Question: With `C=C1C(=O)O[C@@H]2[C@@H]3[C@@H](C[C@@]4(O)[C@]3(O)CC[C@]43C(=O)C[C@H]4C(=C)CC[C@H]5C(=C)C(=O)O[C@@H]5[C@H]43)C(=C)CC[C@@H]12` [Compound 223, (+)-Ainsliadimer A] as the compound, how does the “association with peptides #3 and #4” value [1] read?
Answer: no association

Question: What about the “association with TAK1” value (TAK1) of the same compound?
Answer: no association

Question: What about the “interaction with IKKβ Cys46 to serine mutant” value (IKKβ Cys46 into serine) of the same compound?
Answer: abolished

Question: What about the “phosphorylation of IκBα triggered by poly(I:C)” value (phosphorylation of IκBα [2]) of the same compound?
Answer: markedly suppressed

Question: And the “binding to peptides 1A, 2A, 1S and 2S” value [3]?
Answer: lost the ability to bind

Question: What about the “selectivity against a panel of structurally related kinases” value [4] of the same compound?
Answer: excellent selectivity

Question: And the “TRAF6-induced phosphorylation of IKKα/β” value [5]?
Answer: completely abolished

Question: What about the “binding of other eight IKKβ cysteine mutants” value [6] of the same compound?
Answer: retained high affinity binding

Question: And the “NIK-mediated production of p52” value [7]?
Answer: prevented

Question: And the “up-regulation of serum IL-1β” value [8]?
Answer: greatly attenuated

Question: What about the “up-regulation of serum IL-6” value [8] of the same compound?
Answer: greatly attenuated

Question: What about the “up-regulation of serum TNF-α” value [8] of the same compound?
Answer: greatly attenuated

Question: And the “TNF induced phosphorylation of IκBα” value (phosphorylation of IκBα [9])?
Answer: significantly inhibited

Question: And the “association with TAB1” value (TAB1)?
Answer: no association
